# According to patent US10988523B2, “Modified lipidated Relaxin B chain peptides and their therapeutic use” (Sanofi, priority 2018, dated 2021):
# *1 amine or outer side, *2 acyl side, *3 side chain or, on linkers, in order; H or OH if unused. Where a SMILES comes first, the peptide text is derived from it. Side-chain parts run from the residue outwards. [ ]: non-standard residue; d: D form. The star is where a group is joined. X5 = CCCCCCCCCCCCCCCC(=O)N[C@@H](CCC(=O)NCCCC[C@H](NC(=O)CC[C@H](NC(=O)CC[C@H](NC(=O)CC[C@H](NC(=O)CCC(=O)NCCCOCCOCCOCCCNC(=O)CCC(=O)NCCCOCCOCCOCCCN*)C(=O)O)C(=O)O)C(=O)O)C(N)=O)C(=O)O; Arg(Me2s) = CN=C(NC)NCCC[C@H](N)C(=O)O; γGlu = O=C(O)[C@H](CCC(=O)[*:2])N[*:1]; Arg(Me) = CNC(=N)NCCC[C@H](N)C(=O)O; Stearoyl = CCCCCCCCCCCCCCCCCC(=O)*; Palmitoyl = CCCCCCCCCCCCCCCC(=O)*; αMeF = C[C@](N)(Cc1ccccc1)C(=O)O; αMeK = C[C@](N)(CCCCN)C(=O)O; Nle = CCCC[C@H](N)C(=O)O; AEEA = NCCOCCOCC(=O)O; Aib = CC(C)(N)C(=O)O
# Biological target: T1, RXFP1 (Homo sapiens, UniProt Q9HBX9)
# T1 construct: OVCAR5 cells expressing endogenous RXFP1; endogenous in cells; host or cells: OVCAR5 cells
# T1 sequence (Q9HBX9 1-757): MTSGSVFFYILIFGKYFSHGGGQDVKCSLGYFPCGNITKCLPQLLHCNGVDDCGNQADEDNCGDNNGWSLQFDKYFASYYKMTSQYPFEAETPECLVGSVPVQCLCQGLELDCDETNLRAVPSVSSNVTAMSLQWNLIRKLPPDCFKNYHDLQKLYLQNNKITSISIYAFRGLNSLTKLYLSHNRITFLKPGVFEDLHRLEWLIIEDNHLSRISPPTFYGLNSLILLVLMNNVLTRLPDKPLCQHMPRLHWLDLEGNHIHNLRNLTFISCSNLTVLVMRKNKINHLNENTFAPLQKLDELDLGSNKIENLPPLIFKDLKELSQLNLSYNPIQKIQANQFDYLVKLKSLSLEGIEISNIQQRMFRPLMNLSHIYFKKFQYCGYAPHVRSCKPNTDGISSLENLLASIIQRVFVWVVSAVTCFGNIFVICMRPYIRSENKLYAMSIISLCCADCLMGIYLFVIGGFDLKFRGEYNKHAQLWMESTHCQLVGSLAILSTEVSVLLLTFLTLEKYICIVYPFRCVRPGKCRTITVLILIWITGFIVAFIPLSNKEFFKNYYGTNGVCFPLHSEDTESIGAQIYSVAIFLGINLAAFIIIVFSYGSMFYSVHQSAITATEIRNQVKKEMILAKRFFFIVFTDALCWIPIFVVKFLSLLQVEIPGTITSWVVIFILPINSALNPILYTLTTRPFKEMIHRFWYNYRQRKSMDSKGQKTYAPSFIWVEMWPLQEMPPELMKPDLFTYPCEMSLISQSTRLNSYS
# Test: OVCAR5 cAMP assay (HTRF), RXFP1 agonist activity
# Type: cell-based
# Details: for EC50: OVCAR5 cells, cAMP HTRF, read-out: EC50 (nM), OVCAR 5 cells (cAMP); for Emax: OVCAR-5, maximal cAMP relative to H2-relaxin maximum (100%), read-out: EMax, OVCAR 5 cells (cAMP)
# How it was run: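 OVCAR5 cells (endogenous RXFP1) pretreated 40 min at 37° C with 1 mM IBMX, then exposed to peptides in serum-free medium for 30 min at 37° C. Lysate cAMP read by HTRF; EC50 from variable-slope sigmoidal fit; Emax as % of H2-relaxin maximal cAMP in same run.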
smiles,measurement,value
CCCCCCCCCCCCCCCC(=O)N[C@@H](CCC(=O)NCCCC[C@H](NC(=O)CC[C@H](NC(=O)CC[C@H](NC(=O)CC[C@H](NC(=O)CCC(=O)NCCCOCCOCCOCCCNC(=O)CCC(=O)NCCCOCCOCCOCCCNC(=O)[C@H](CCCCNC(C)=O)NC(=O)[C@H](CCCCN)NC(=O)[C@H](CCCNC(=N)N)NC(=O)[C@](C)(CCCCN)NC(=O)[C@H](CO)NC(=O)[C@H](Cc1ccccc1)NC(=O)[C@@H](NC(=O)[C@H](CO)NC(=O)[C@H](CCCC)NC(=O)CNC(=O)[C@H](CCC(=O)O)NC(=O)C(C)(C)NC(=O)C(C)(C)NC(=O)[C@@H](NC(=O)[C@H](CCCCNC(C)=O)NC(=O)[C@H](C)NC(=O)[C@H](CCCNC(=N)N)NC(=O)[C@@H](NC(=O)[C@H](CCCCN)NC(=O)[C@H](CCC(=O)O)NC(=O)[C@H](CCCNC(=N)N)NC(=O)CNC(=O)[C@H](CCC(=O)O)NC(=O)[C@H](CC(C)C)NC(C)=O)C(C)C)[C@@H](C)CC)[C@@H](C)O)C(=O)O)C(=O)O)C(=O)O)C(N)=O)C(=O)O [compound 146] (Ac-LEGREKVRAK(Ac)I[Aib][Aib]EG[Nle]STFS[αMeK]RKK(Ac)-X5),EC50,0.02 nM
same,Emax,89%
CCCCCCCCCCCCCCCC(=O)N[C@@H](CCC(=O)N[C@@H](CCC(=O)N[C@@H](CCC(=O)N[C@@H](CCC(=O)NCCOCCOCC(=O)NCCOCCOCC(=O)NCCOCCOCC(=O)NCCOCCOCC(=O)NCCCC[C@H](NC(=O)[C@H](CCCCNC(C)=O)NC(=O)[C@H](CCCCN)NC(=O)[C@H](CCCNC(=N)N)NC(=O)C(C)(C)NC(=O)[C@H](CO)NC(=O)[C@H](Cc1ccccc1)NC(=O)[C@@H](NC(=O)[C@H](CO)NC(=O)[C@H](CCCC)NC(=O)CNC(=O)[C@H](CCC(=O)O)NC(=O)C(C)(C)NC(=O)C(C)(C)NC(=O)[C@@H](NC(=O)[C@H](CCCCNC(C)=O)NC(=O)[C@H](C)NC(=O)[C@H](CCCNC(=N)N)NC(=O)[C@@H](NC(=O)[C@H](CCCCN)NC(=O)[C@H](CCC(=O)O)NC(=O)[C@H](CCCNC(=N)N)NC(=O)CNC(=O)[C@H](CCC(=O)O)NC(=O)[C@H](CC(C)C)NC(C)=O)C(C)C)[C@@H](C)CC)[C@@H](C)O)C(N)=O)C(=O)O)C(=O)O)C(=O)O)C(=O)O [compound 147] (Ac-LEGREKVRAK(Ac)I[Aib][Aib]EG[Nle]STFS[Aib]RKK(Ac)K([AEEA-AEEA-AEEA-AEEA-γGlu-γGlu-γGlu-γGlu-Palmitoyl])-NH2),Emax,86%
CCCCCCCCCCCCCCCCCC(=O)N[C@@H](CCC(=O)N[C@@H](CCC(=O)N[C@@H](CCC(=O)NCCOCCOCC(=O)NCCOCCOCC(=O)NCCOCCOCC(=O)NCCCC[C@H](NC(=O)[C@H](CCCCNC(C)=O)NC(=O)[C@H](CCCCN)NC(=O)[C@H](CCCNC(=NC)NC)NC(=O)C(C)(C)NC(=O)[C@H](CO)NC(=O)[C@H](Cc1c[nH]c2ccccc12)NC(=O)[C@@H](NC(=O)[C@H](CO)NC(=O)[C@H](CCCC)NC(=O)CNC(=O)[C@H](CCC(=O)O)NC(=O)C(C)(C)NC(=O)C(C)(C)NC(=O)[C@@H](NC(=O)[C@H](CCCCNC(C)=O)NC(=O)[C@H](C)NC(=O)[C@H](CCCNC(=N)N)NC(=O)[C@@H](NC(=O)[C@H](CCCCN)NC(=O)[C@H](CCC(=O)O)NC(=O)[C@H](CCCNC(=N)N)NC(=O)CNC(=O)[C@H](CCC(=O)O)NC(=O)[C@H](CC(C)C)NC(C)=O)C(C)C)[C@@H](C)CC)[C@@H](C)O)C(N)=O)C(=O)O)C(=O)O)C(=O)O [compound 148] (Ac-LEGREKVRAK(Ac)I[Aib][Aib]EG[Nle]STWS[Aib][Arg(Me2s)]KK(Ac)K([AEEA-AEEA-AEEA-γGlu-γGlu-γGlu-Stearoyl])-NH2),Emax,94%
CCCCCCCCCCCCCCCC(=O)N[C@@H](CCC(=O)NCCCC[C@H](NC(=O)CC[C@H](NC(=O)CC[C@H](NC(=O)CC[C@H](NC(=O)COCCOCCNC(=O)COCCOCCNC(=O)COCCOCCNC(=O)COCCOCCNC(=O)[C@H](CCCCNC(C)=O)NC(=O)[C@H](C)NC(=O)[C@H](CCCNC(=N)NC)NC(=O)[C@](C)(CCCCN)NC(=O)[C@H](CO)NC(=O)[C@H](Cc1ccccc1)NC(=O)[C@@H](NC(=O)[C@H](CO)NC(=O)[C@H](CCCC)NC(=O)CNC(=O)[C@H](CCC(=O)O)NC(=O)C(C)(C)NC(=O)C(C)(C)NC(=O)[C@@H](NC(=O)[C@H](CCCCNC(C)=O)NC(=O)[C@H](C)NC(=O)[C@H](CCCNC(=N)N)NC(=O)[C@@H](NC(=O)[C@H](CCCCN)NC(=O)[C@H](CCC(=O)O)NC(=O)[C@H](CCCNC(=N)N)NC(=O)CNC(=O)[C@H](CCC(=O)O)NC(=O)[C@H](CC(C)C)NC(C)=O)C(C)C)[C@@H](C)CC)[C@@H](C)O)C(=O)O)C(=O)O)C(=O)O)C(N)=O)C(=O)O [compound 151] (Ac-LEGREKVRAK(Ac)I[Aib][Aib]EG[Nle]STFS[αMeK][Arg(Me)]AK(Ac)[AEEA][AEEA][AEEA][AEEA][γGlu][γGlu][γGlu]K([γGlu-Palmitoyl])-NH2),EC50,0.14 nM
same,Emax,90%
CCCCCCCCCCCCCCCC(=O)N[C@@H](CCC(=O)NCCCC[C@H](NC(=O)CC[C@H](NC(=O)CC[C@H](NC(=O)CC[C@H](NC(=O)COCCOCCNC(=O)COCCOCCNC(=O)COCCOCCNC(=O)COCCOCCNC(=O)[C@H](CCCCNC(C)=O)NC(=O)[C@H](CCCCN)NC(=O)[C@H](CCCNC(=N)N)NC(=O)[C@](C)(CCCCN)NC(=O)[C@H](CO)NC(=O)[C@](C)(Cc1ccccc1)NC(=O)[C@@H](NC(=O)[C@H](CO)NC(=O)[C@H](CCCC)NC(=O)CNC(=O)[C@H](CCC(=O)O)NC(=O)C(C)(C)NC(=O)C(C)(C)NC(=O)[C@@H](NC(=O)[C@H](CCCCNC(C)=O)NC(=O)[C@H](C)NC(=O)[C@H](CCCNC(=N)N)NC(=O)[C@@H](NC(=O)[C@H](CCCCN)NC(=O)[C@H](CCC(=O)O)NC(=O)[C@H](CCCNC(=N)N)NC(=O)CNC(=O)[C@H](CCC(=O)O)NC(=O)[C@H](CC(C)C)NC(C)=O)C(C)C)[C@@H](C)CC)[C@@H](C)O)C(=O)O)C(=O)O)C(=O)O)C(N)=O)C(=O)O [compound 152] (Ac-LEGREKVRAK(Ac)I[Aib][Aib]EG[Nle]ST[αMeF]S[αMeK]RKK(Ac)[AEEA][AEEA][AEEA][AEEA][γGlu][γGlu][γGlu]K([γGlu-Palmitoyl])-NH2),Emax,91%
CCCCCCCCCCCCCCCC(=O)N[C@@H](CCC(=O)N[C@@H](CCC(=O)N[C@@H](CCC(=O)NCCOCCOCC(=O)NCCOCCOCC(=O)NCCOCCOCC(=O)NCCOCCOCC(=O)NCCCC[C@H](NC(=O)[C@H](CCCCNC(C)=O)NC(=O)[C@H](CCCCN)NC(=O)[C@H](CCCNC(=N)N)NC(=O)C(C)(C)NC(=O)[C@H](CO)NC(=O)[C@H](Cc1ccccc1)NC(=O)[C@@H](NC(=O)[C@H](CO)NC(=O)[C@H](CCCC)NC(=O)CNC(=O)[C@H](CCC(=O)O)NC(=O)C(C)(C)NC(=O)C(C)(C)NC(=O)[C@@H](NC(=O)[C@H](CCCCNC(C)=O)NC(=O)[C@H](C)NC(=O)[C@H](CCCNC(=N)N)NC(=O)[C@@H](NC(=O)[C@H](CCCCN)NC(=O)[C@H](CCC(=O)O)NC(=O)[C@H](CCCNC(=N)N)NC(=O)CNC(=O)[C@H](CCC(=O)O)NC(=O)[C@H](CC(C)C)NC(C)=O)C(C)C)[C@@H](C)CC)[C@@H](C)O)C(N)=O)C(=O)O)C(=O)O)C(=O)O [compound 153] (Ac-LEGREKVRAK(Ac)I[Aib][Aib]EG[Nle]STFS[Aib]RKK(Ac)K([AEEA-AEEA-AEEA-AEEA-γGlu-γGlu-γGlu-Palmitoyl])-NH2),EC50,0.26 nM
same,Emax,89%
CCCCCCCCCCCCCCCCCC(=O)N[C@@H](CCC(=O)N[C@@H](CCC(=O)N[C@@H](CCC(=O)NCCOCCOCC(=O)NCCOCCOCC(=O)NCCOCCOCC(=O)NCCCC[C@H](NC(=O)[C@H](CCCCNC(C)=O)NC(=O)[C@H](C)NC(=O)[C@H](C)NC(=O)C(C)(C)NC(=O)[C@H](CO)NC(=O)[C@H](Cc1c[nH]c2ccccc12)NC(=O)[C@@H](NC(=O)[C@H](CO)NC(=O)[C@H](CCCC)NC(=O)CNC(=O)[C@H](CCC(=O)O)NC(=O)C(C)(C)NC(=O)C(C)(C)NC(=O)[C@@H](NC(=O)[C@H](CCCCNC(C)=O)NC(=O)[C@H](C)NC(=O)[C@H](CCCNC(=N)N)NC(=O)[C@@H](NC(=O)[C@H](CCCCN)NC(=O)[C@H](CCC(=O)O)NC(=O)[C@H](CCCNC(=N)N)NC(=O)CNC(=O)[C@H](CCC(=O)O)NC(=O)[C@H](CC(C)C)NC(C)=O)C(C)C)[C@@H](C)CC)[C@@H](C)O)C(N)=O)C(=O)O)C(=O)O)C(=O)O [compound 155] (Ac-LEGREKVRAK(Ac)I[Aib][Aib]EG[Nle]STWS[Aib]AAK(Ac)K([AEEA-AEEA-AEEA-γGlu-γGlu-γGlu-Stearoyl])-NH2),Emax,95%
